Laboratory results as given in patent US20050026950A1, “Methods of therapeutic treatment using retinoids to achieve consistent bioavailability” (Allergan, Inc., priority 2003, published 2005).
Read-outs that look alike come from different tables or passages of the source.

Experiments:
[1] = Food effect (high-fat meal vs 8-10 hour fast) on pharmacokinetics of tazarotenic acid after oral tazarotene in normal healthy subjects; format: in vivo, human; conditions: 6.3 mg oral tazarotene, fed vs fasted
Text: For the purposes of this application, the bioavailability of a drug may be based on the human pharmokinetic parameters of maximum blood concentration (Cmax) and Area under the blood concentration-time curve (AUC).

[2] = Patient with severe psoriasis taking Ortho-Novum treated with tazarotene; format: in vivo, human; conditions: female, human, in vivo, tazarotene 6 mg per day, mean ±SD
Text: The patient presents symptoms of severe psoriasis. The symptoms include lesions approximately 4 to 10 centimeters across appearing as raised patches of wine red skin many of which are covered in silvery white scales. The lesions are mostly dry and rough, and quite often noticeably warm to the touch. The lesions are present on the elbows, knees, scalp, and groin area. The patient experiences intense burning and itching associated with the lesions.
The patient is currently taking Ortho-Novum® for contraception.
Tazarotene at a dose of 6 mg per day is prescribed.

RARs = assay: RAR activation; format: cell-based
RXRs = assay: RXR activation; format: cell-based
RAR-α = target: T1, RAR-α (Homo sapiens, UniProt P10276); assay: RAR-α activity; format: cell-based
T1 sequence (P10276 1-462): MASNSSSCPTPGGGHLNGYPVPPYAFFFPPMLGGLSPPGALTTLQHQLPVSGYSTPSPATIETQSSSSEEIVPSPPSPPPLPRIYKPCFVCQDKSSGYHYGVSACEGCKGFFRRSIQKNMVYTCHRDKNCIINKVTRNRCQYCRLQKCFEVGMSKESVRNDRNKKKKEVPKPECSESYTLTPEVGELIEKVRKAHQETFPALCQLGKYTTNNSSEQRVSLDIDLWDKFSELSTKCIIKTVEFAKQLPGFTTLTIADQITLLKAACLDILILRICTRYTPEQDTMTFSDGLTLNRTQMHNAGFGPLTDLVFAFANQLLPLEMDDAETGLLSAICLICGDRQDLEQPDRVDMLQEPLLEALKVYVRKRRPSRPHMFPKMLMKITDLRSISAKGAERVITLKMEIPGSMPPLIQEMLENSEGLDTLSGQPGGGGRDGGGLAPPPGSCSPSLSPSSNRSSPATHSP

[3] = published data (N = 525); cited from earlier work
[4] = oral, cited from earlier work
[5] = cited from earlier work
[6] = published data (N = 525); cited from earlier work; remark: listed apart in the source

Question: For CC1(C)CCSc2ccc(C#Cc3ccc(C(=O)O)cn3)cc21 [tazarotenic acid], which “90% confidence intervals (CI) of AUC ratios (test/reference)” value [1] is on record?
Answer: The value was “completely within the 80-125% boundary”.

Question: What about the “Effect of high-fat meal on bioavailability or pharmacokinetics of tazarotenic acid” value ([1]; single and multiple dose) of the same compound?
Answer: Its value is “does not substantially affect”.

Question: And the AUC(0-t) ([2]; read-out: AUC0-24 for tazarotenic acid)?
Answer: Its AUC(0-t) is 379 ± 78 ng·h/mL.

Question: What about the Cmax ([2]; read-out: Cmax for tazarotenic acid) of the same compound?
Answer: Its Cmax is 111 ± 37 ng/mL.

Question: What about the “receptor specificity and selectivity” value (RARs; RARs, RAR-β and RAR-γ) of the same compound?
Answer: Its value is “specificity for the RARs and selectivity for RAR-β and RAR-γ”.

Question: What about the “activation of the RXRs” value (RXRs) of the same compound?
Answer: Its value is “does not activate the RXRs”.

Question: And the RAR-α activity (RAR-α)?
Answer: The RAR-α activity was “minimal RAR-α activity”.

Question: With CC1=C(/C=C/C(C)=C/C=C/C(C)=C\C(=O)O)C(C)(C)CCC1 [isotretinoin] as the compound, how does the Cheilitis [3] read?
Answer: Its Cheilitis is 472 (90.2) number (%) of patients.

Question: And the Conjunctivitis [3]?
Answer: Its Conjunctivitis is 201 (38.4) number (%) of patients.

Question: And the “Desquamation central face/Desquamation” value [3]?
Answer: The value was 187 (35.8) number (%) of patients.

Question: And the Dry Skin [3]?
Answer: Its Dry Skin is 172 (32.9) number (%) of patients.

Question: And the Dry nose [3]?
Answer: The Dry nose was 136 (26.0) number (%) of patients.

Question: What about the Epistaxis [3] of the same compound?
Answer: Its Epistaxis is 121 (23.1) number (%) of patients.

Question: And the “Fingertip peeling/Desquamation” value [3]?
Answer: Its value is 63 (12.0) number (%) of patients.

Question: What about the Headache [3] of the same compound?
Answer: The Headache was 44 (8.4) number (%) of patients.

Question: And the Irritation of eyes [3]?
Answer: The Irritation of eyes was 85 (16.3) number (%) of patients.

Question: And the Pruritus [3]?
Answer: Its Pruritus is 127 (24.3) number (%) of patients.

Question: And the “Red Scaly face/Desquamation” value [3]?
Answer: The value was 54 (10.3) number (%) of patients.

Question: And the “Skin fragility/Skin disorder” value [3]?
Answer: Its value is 164 (31.4) number (%) of patients.

Question: What about the “total dose needed to reach the same peak blood concentration in the fasted state as following a high fat meal” value ([4]; fasted vs high fat meal) of the same compound?
Answer: The value was “more than doubled”.

Question: What about the “impact of food on bioavailability” value [4] of the same compound?
Answer: The value was “bioavailability is increased in the presence of food”.

Question: And the “effect on blood concentrations of ethinyl estradiol and norethindrone” value ([5]; coadministered contraceptive tablets)?
Answer: Its value is “decreases blood concentrations”.

Question: Which results are given for COc1cc(C)c(/C=C/C(C)=C/C=C/C(C)=C/C(=O)O)c(C)c1C [acitretin]?
Answer: Alopecia [6]: 319 (60.8) number (%) of patients; Arthralgia [6]: 102 (19.4) number (%) of patients; Atrophy of skin [6]: 64 (12.2) number (%) of patients; Back pain [6]: 41 (7.8) number (%) of patients; Cheilitis [6]: 429 (81.7) number (%) of patients; Dry Skin [6]: 174 (33.1) number (%) of patients; Dry mouth/Oral dryness [6]: 76 (14.5) number (%) of patients; Epistaxis [6]: 61 (11.6) number (%) of patients; Erythematous rash/Erythema [6]: 57 (10.9) number (%) of patients; Hyperesthesia [6]: 66 (12.6) number (%) of patients; Nail Disorder [6]: 170 (32.4) number (%) of patients; Paresthesia [6]: 56 (10.7) number (%) of patients; Paronychia/Nail disorder [6]: 66 (12.6) number (%) of patients; Pruritus [6]: 157 (29.9) number (%) of patients; Rhinitis [6]: 153 (29.1) number (%) of patients; Rigors/Chills [6]: 67 (12.8) number (%) of patients; Skin peeling/Desquamation [6]: 345 (65.7) number (%) of patients; Sticky skin/Skin disorder [6]: 129 (24.6) number (%) of patients; Xerophthalmia/Eye disorder [6]: 112 (21.3) number (%) of patients; impact of food on bioavailability [4]: bioavailability is increased in the presence of food; effect on contraceptive effect of microdosed progestin “minipill” preparations ([5]; in vivo): interferes with the contraceptive effect

Question: For CC1(C)CC[S+]([O-])c2ccc(C#Cc3ccc(C(=O)O)cn3)cc21 (centres unmarked) [AGN 190844], which “activation of the RARs” value (RARs) is on record?
Answer: Its value is “does not activate either the RARs or the RXRs”.

Question: What about the “activation of the RXRs” value (RXRs) of the same compound?
Answer: Its value is “does not activate either the RARs or the RXRs”.

Question: Which “impact of food on bioavailability” value [4] does the source give for C=C(c1ccc(C(=O)O)cc1)c1cc2c(cc1C)C(C)(C)CCC2(C)C [bexarotene] here?
Answer: Its value is “bioavailability is increased in the presence of food”.

Question: And the “effect on plasma concentration of tamoxifen” value ([5]; coadministration with tamoxifen)?
Answer: Its value is “reduced plasma concentration of tamoxifen”.
